Data taken from patent publication US12391664B2, “GluN2C/D subunit selective antagonists of the N-methyl-D-aspartate receptor” (Emory University, priority 2018, dated 2025).
Like-named read-outs stand apart in the source and are kept apart here.

Tests used:
Assay type in all cases: cell-based
[1] = target: T1, recombinant rat GluN1/GluN2D (Rattus norvegicus, UniProt P35439+Q62645); experiment: Two-electrode voltage-clamp recordings in Xenopus laevis oocytes, GluN2D
T1 construct: expressed in transfected cells; host or cells: Xenopus laevis oocytes injected with cRNA (GluN1:GluN2 ratio 1:2)
Procedure: (§1) All target compounds were evaluated for activity by the Traynelis laboratory at Emory University using two-electrode voltage-clamp recordings performed in Xenopus laevis oocytes expressing recombinant GluN2A-D subunits (Table 1). […] Two ester compounds 997-65 and 997-66 also performed no inhibition at GluN2A to GluN2D receptors. […] Consequently, for the compounds that Acker et al. already published, it was necessary to increase the concentration to 100 μM when collecting data for a concentration effect curve. […] Therefore, under this condition, we can only conclude that compound 997-67 remained potent at GluN2C/D-containing receptors, but its selectivity over GluN2A- and GluN2B-containing receptors could not be compared to 997-57. […] Finally, replacing the carboxylic acid to the bio-isostere amide yielded compounds 997-96 and 997-115, which dropped the potency 2- to 4-fold in comparison to their corresponding acids 997-74 and 997-114.
(§2) Two-electrode voltage-clamp recordings were performed in Xenopus laevis oocytes that were injected with mRNA to express recombinant rat GluN1/GluN2A, GluN1/GluN2B, GluN1/GluN2C, and GluN1/GluN2D. The recordings using unfertilized oocytes from Xenopus laevis were permitted by Emory University Institutional Animal Care and Use Committee (IACUC). An automatic injector (Nanoject II, Drummond Scientific) was used for cRNA injection using the pipettes filled with mineral oil. The cRNA that transcribed in vitro via the mMessage Machine kit (Ambion) was diluted with nuclease-free water, and then injected at GluN1/GluN2 with a ratio of 1:2. The oocytes were stored in Barth's solution that contained 88 mM NaCl, 5.0 mM Tris-HCl, 2.4 mM NaHCO3, 1.0 mM KCl, 0.84 mM MgSO4, 0.41 mM CaCl2, 0.33 mM Ca(NO3)2, 0.1 mg/ml gentamycin sulfate, 1.0 U/ml penicillin, and 1 μg/ml streptomycin at a pH of 7.4 and temperatures of 15-17° C. for two to five days before the two-electrode voltage-clamp recordings. When recording, the oocytes were placed in a perfusion chamber and continually washed with the recording solution comprised of 90 mM NaCl, 1.0 mM KCl, 0.50 mM BaCl2, 0.005 mM EDTA, and 10 mM HEPES at a pH of 7.4 and a temperature of 23° C. Glass electrodes with a tip resistance of 0.5 to 2.5 MΩ were obtained from thin-walled glass capillary tubes. Voltage electrodes and current electrodes were filled with 0.3 M and 3.0 M KCl, respectively. The recordings were executed with the oocytes membrane potential holding at −40 m V by an OC-725 amplifier (Warner Instrument Co). All compounds were dissolved in dimethyl sulfoxide (DMSO) as 20 mM stock solutions and future diluted to reach the desired concentration (0.05-0.5% (vol/vol) DMSO) in recording solution comprised of 30 μM glycine and 100 μM glutamate. Each compound was recorded 3-7 times in the least 4 oocytes from at least 2 different Xenopus laevis.
(§3) To evaluate the inhibition of compounds, the concentration-response curve was fitted with the average two-electrode voltage-clamp recording results with the equation
(§4) [formula] • where IC50 is the concentration of compounds that inhibit half maximal of the current response and N is the Hill slope.

[2] = target: T2, recombinant rat GluN1/GluN2B (Rattus norvegicus, UniProt Q00960); experiment: Two-electrode voltage-clamp recordings in Xenopus laevis oocytes, GluN2B; details: oocytes, 100 μM glutamate and 30 μM glycine
T2 construct: expressed in transfected cells; host or cells: Xenopus laevis oocytes injected with cRNA (GluN1:GluN2 ratio 1:2)
Procedure: as §1, §2, §3, §4

[3] = target: T3, recombinant rat GluN1/GluN2A (Rattus norvegicus, UniProt Q00959); experiment: Two-electrode voltage-clamp recordings in Xenopus laevis oocytes, GluN2A; details: oocytes, 100 μM glutamate and 30 μM glycine
T3 construct: expressed in transfected cells; host or cells: Xenopus laevis oocytes injected with cRNA (GluN1:GluN2 ratio 1:2)
Procedure: as §1, §2, §3, §4

[4] = target: T4, recombinant rat GluN1/GluN2C (Rattus norvegicus, UniProt P35439+Q00961); experiment: Two-electrode voltage-clamp recordings in Xenopus laevis oocytes, GluN2C; details: oocytes, 100 μM glutamate and 30 μM glycine; read-out: GluN2C IC50
T4 construct: expressed in transfected cells; host or cells: Xenopus laevis oocytes injected with cRNA (GluN1:GluN2 ratio 1:2)
Procedure: as §1, §2, §3, §4

[5] = target: T5, recombinant rat GluN1/GluN2D (Rattus norvegicus, UniProt Q62645); experiment: Two-electrode voltage-clamp recordings in Xenopus laevis oocytes, GluN2D; details: for 2A IC50 / 2D IC50 / 2B IC50 / 2D IC50: ratio of IC50 values
T5 construct: expressed in transfected cells; host or cells: Xenopus laevis oocytes injected with cRNA (GluN1:GluN2 ratio 1:2)
Procedure: as §1, §2, §3, §4

[6] = target: T6, recombinant rat GluN1/GluN2B (Rattus norvegicus, UniProt P35439+Q00960); experiment: Two-electrode voltage-clamp recordings in Xenopus laevis oocytes, GluN2B; details: oocytes, 100 μM glutamate and 30 μM glycine
T6 construct: expressed in transfected cells; host or cells: Xenopus laevis oocytes injected with cRNA (GluN1:GluN2 ratio 1:2)
Procedure: as §1, §2, §3, §4

[7] = GluN2C and GluN2D receptors, read-out: IC50 values at GluN2C and GluN2D receptors, range over the alcohol compounds
[8] = oocytes, 100 μM glutamate and 30 μM glycine, read-out: GluN2D IC50
[9] = read-out: IC50 at GluN2D-containing receptors

T3 sequence (Q00959 23-1464, other chains not shown): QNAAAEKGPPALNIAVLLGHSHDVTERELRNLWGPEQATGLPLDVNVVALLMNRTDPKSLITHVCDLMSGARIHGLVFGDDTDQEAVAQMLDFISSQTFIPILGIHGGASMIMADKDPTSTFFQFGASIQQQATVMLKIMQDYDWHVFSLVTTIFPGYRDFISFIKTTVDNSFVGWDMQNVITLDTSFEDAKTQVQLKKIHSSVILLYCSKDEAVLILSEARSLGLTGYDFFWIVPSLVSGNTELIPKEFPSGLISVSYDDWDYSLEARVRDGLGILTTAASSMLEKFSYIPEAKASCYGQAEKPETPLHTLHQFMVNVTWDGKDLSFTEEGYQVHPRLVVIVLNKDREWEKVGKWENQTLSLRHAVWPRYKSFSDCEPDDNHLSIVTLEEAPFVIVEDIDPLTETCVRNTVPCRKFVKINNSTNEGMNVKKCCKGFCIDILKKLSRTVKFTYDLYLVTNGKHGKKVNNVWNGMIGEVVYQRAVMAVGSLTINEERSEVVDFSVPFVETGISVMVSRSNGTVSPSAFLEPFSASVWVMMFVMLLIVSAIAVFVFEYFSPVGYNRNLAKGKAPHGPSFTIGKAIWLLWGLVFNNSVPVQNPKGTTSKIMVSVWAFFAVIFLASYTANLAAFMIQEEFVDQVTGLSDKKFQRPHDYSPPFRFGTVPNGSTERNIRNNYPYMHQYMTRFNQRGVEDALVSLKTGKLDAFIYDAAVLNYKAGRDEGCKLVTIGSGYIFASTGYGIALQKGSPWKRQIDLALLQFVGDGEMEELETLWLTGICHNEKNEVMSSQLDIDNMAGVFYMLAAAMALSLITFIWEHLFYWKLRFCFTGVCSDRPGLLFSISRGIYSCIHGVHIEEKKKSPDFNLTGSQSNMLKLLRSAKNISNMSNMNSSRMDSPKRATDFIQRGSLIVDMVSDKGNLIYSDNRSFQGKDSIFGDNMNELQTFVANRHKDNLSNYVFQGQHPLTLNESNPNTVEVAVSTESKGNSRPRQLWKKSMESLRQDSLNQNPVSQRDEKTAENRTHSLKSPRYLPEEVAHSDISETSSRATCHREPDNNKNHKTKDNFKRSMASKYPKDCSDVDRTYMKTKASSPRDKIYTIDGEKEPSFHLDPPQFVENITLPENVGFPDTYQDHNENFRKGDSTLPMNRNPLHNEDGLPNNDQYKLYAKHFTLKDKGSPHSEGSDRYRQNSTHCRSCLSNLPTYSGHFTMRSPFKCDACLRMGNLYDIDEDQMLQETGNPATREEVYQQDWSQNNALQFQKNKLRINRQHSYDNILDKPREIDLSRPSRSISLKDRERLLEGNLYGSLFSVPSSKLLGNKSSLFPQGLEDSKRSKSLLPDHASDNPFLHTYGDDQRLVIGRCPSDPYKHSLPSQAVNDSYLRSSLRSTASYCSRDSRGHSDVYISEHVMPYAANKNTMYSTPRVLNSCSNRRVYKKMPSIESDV
T6 sequence (Q00960 27-1482, other chains not shown): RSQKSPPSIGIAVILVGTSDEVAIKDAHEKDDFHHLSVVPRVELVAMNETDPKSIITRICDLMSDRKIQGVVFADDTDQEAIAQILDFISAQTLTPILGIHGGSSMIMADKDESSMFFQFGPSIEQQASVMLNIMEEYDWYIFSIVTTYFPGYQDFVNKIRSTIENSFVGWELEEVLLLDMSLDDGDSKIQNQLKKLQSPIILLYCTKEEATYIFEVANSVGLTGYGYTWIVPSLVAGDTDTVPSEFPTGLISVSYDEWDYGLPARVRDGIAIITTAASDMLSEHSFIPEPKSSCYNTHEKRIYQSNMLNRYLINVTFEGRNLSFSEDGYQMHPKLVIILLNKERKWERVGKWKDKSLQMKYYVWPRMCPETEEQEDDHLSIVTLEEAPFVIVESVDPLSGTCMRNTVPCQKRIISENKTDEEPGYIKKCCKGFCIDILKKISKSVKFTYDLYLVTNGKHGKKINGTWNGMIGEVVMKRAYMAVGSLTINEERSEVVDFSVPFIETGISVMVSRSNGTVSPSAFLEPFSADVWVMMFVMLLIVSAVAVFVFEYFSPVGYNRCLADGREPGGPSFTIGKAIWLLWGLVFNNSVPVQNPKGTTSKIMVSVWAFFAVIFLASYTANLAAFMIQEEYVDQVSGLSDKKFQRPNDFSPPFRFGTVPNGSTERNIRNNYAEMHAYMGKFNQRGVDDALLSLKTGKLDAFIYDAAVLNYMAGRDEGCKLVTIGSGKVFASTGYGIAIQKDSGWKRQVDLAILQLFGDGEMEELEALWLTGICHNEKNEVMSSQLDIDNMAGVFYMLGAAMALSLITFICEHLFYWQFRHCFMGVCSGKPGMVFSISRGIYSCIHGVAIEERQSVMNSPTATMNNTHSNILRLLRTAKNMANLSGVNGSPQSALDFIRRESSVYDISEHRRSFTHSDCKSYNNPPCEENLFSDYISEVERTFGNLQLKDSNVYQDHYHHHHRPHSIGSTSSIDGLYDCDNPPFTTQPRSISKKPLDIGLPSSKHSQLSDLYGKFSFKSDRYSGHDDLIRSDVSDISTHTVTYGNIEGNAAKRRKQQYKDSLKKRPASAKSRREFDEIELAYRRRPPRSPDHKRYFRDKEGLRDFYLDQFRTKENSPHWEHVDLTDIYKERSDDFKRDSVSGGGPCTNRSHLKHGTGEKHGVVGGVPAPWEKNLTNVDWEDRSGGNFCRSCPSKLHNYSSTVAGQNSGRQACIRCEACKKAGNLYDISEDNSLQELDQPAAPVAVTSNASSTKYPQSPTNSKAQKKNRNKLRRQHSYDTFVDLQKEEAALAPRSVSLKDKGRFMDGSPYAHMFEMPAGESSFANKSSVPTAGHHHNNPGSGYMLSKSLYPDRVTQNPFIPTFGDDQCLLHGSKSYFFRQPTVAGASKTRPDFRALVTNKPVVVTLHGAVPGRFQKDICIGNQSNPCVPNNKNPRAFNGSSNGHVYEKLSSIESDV
T2 sequence (Q00960 27-1482, other chains not shown): as above

Row | IC50 [1, 8] [µM] | IC50 [4] [µM] | SMILES | GluN2B IC50 [2] | GluN2A IC50 [3] | also measured
1 | – | – | O=C(CC(F)(F)CO)N1N=C(c2c(-c3ccc(Cl)cc3)c3ccccc3[nH]c2=O)CC1c1ccc(Cl)cc1 (centres unmarked) [997-67, 4-(4-chlorophenyl)-3-[5-(4-chlorophenyl)-1-(3,3-difluoro-4-hydroxybutanoyl)-4,5-dihydro-1H-pyrazol-3-yl]quinolin-2(1H)-one] | NE (NE indicates less than 50% inhibition at 30 μM.) | NE (NE indicates less than 50% inhibition at 30 μM.) | IC50 [1, 7]: 0.8 to 2 µM
2 | 1.4 | 4.3 | O=C(CC(F)(F)CO)N1N=C(c2c(-c3cccc(F)c3)c3ccccc3[nH]c2=O)CC1c1ccc(Cl)cc1 (centres unmarked) [997-68, 3-[5-(4-chlorophenyl)-1-(3,3-difluoro-4-hydroxybutanoyl)-4,5-dihydro-1H-pyrazol-3-yl]-4-(3-fluorophenyl)quinolin-2(1H)-one] | NE (NE indicates less than 50% inhibition at 30 μM.) | NE (NE indicates less than 50% inhibition at 30 μM.) | IC50 [1, 7]: 0.8 to 2 µM
3 | 2 | 17 | O=C(N1N=C(c2c(-c3ccc(Cl)cc3)c3ccccc3[nH]c2=O)CC1c1ccc(Cl)cc1)C(F)(F)CCO (centres unmarked) [997-75, 4-(4-chlorophenyl)-3-[5-(4-chlorophenyl)-1-(2,2-difluoro-4-hydroxybutanoyl)-4,5-dihydro-1H-pyrazol-3-yl]quinolin-2(1H)-one] | NE (NE indicates less than 50% inhibition at 30 μM.) | NE (NE indicates less than 50% inhibition at 30 μM.) | IC50 [1, 7]: 0.8 to 2 µM
4 | – | – | O=C(O)CCC(=O)N1N=C(c2c(-c3ccncc3)c3ccccc3[nH]c2=O)CC1c1ccc(Cl)cc1 (centres unmarked) [997-82, 4-(5-(4-chlorophenyl)-3-(2-oxo-4-(pyridin-4-yl)-1,2-dihydroquinolin-3-yl)-4,5-dihydro-1H-pyrazol-1-yl)-4-oxobutanoic acid] | NE (NE indicates less than 50% inhibition at 30 μM.) | NE (NE indicates less than 50% inhibition at 30 μM.) | –
5 | 4.4 | 7.1 | Cc1ccc2[nH]c(=O)c(C3=NN(C(=O)CC(F)(F)CO)C(c4ccc(Cl)cc4)C3)c(-c3ccc(Cl)cc3)c2c1 (centres unmarked) [997-91, 4-(4-chlorophenyl)-3-[5-(4-chlorophenyl)-1-(3,3-difluoro-4-hydroxybutanoyl)-4,5-dihydro-1H-pyrazol-3-yl]-6-methylquinolin-2(1H)-one] | NE (NE indicates less than 50% inhibition at 30 μM.) | NE (NE indicates less than 50% inhibition at 30 μM.) | –
6 | 6.2 | 4.8 | O=C(O)CC(F)(F)C(=O)N1N=C(c2ccccc2-c2ccc(Cl)cc2)CC1c1ccc(Cl)cc1 (centres unmarked) [997-95, 4-(3-(4′-chloro-[1,1′-biphenyl]-2-yl)-5-(4-chlorophenyl)-4,5-dihydro-1H-pyrazol-1-yl)-3,3-difluoro-4-oxobutanoic acid] | – | – | 2A IC50 / 2D IC50 [5]: 5; 2B IC50 / 2D IC50 [5]: 1; IC50 [6]: 6.4 µM
7 | 0.2 | 0.5 | NC(=O)CC(F)(F)C(=O)N1N=C(c2c(-c3ccc(Cl)cc3)c3ccccc3[nH]c2=O)CC1c1ccc(Cl)cc1 (centres unmarked) [997-96, 4-(5-(4-chlorophenyl)-3-(4-(4-chlorophenyl)-2-oxo-1,2-dihydroquinolin-3-yl)-4,5-dihydro-1H-pyrazol-1-yl)-3,3-difluoro-4-oxobutanamide] | – | – | 2A IC50 / 2D IC50 [5]: 150; 2B IC50 / 2D IC50 [5]: 14; IC50 [6]: 2.8 µM
8 | – | 0.44 | O=C(O)CC(F)(F)C(=O)N1N=C(c2c(-c3ccc(Cl)cc3)c3ccccc3[nH]c2=S)CC1c1ccc(Cl)cc1 (centres unmarked) [997-98, 4-(5-(4-chlorophenyl)-3-(4-(4-chlorophenyl)-2-thioxo-1,2-dihydroquinolin-3-yl)-4,5-dihydro-1H-pyrazol-1-yl)-3,3-difluoro-4-oxobutanoic acid] | inactive | inactive | IC50 [1, 9]: 0.14 µM; GluN2B IC50 ([2]; listed as 98): NE (NE indicates less than 50% inhibition at 30 μM.); GluN2A IC50 ([3]; listed as 98): NE (NE indicates less than 50% inhibition at 30 μM.)
9 | 12 | 16 | O=C(O)CCC(=O)N1N=C(c2ccccc2-c2ccc(Cl)cc2)CC1c1ccc(Cl)cc1 (centres unmarked) [997-99, 4-(3-(4′-chloro-[1,1′-biphenyl]-2-yl)-5-(4-chlorophenyl)-4,5-dihydro-1H-pyrazol-1-yl)-4-oxobutanoic acid] | NE (NE indicates less than 50% inhibition at 30 μM.) | NE (NE indicates less than 50% inhibition at 30 μM.) | –
10 | 3.1 | 7 | O=C(O)CC(F)(F)C(=O)N1N=C(c2c(-c3ccc(F)cc3)c3ccccc3[nH]c2=O)CC1c1ccc(F)cc1 (centres unmarked) [997-103, 3,3-difluoro-4-(5-(4-fluorophenyl)-3-(4-(4-fluorophenyl)-2-oxo-1,2-dihydroquinolin-3-yl)-4,5-dihydro-1H-pyrazol-1-yl)-4-oxobutanoic acid] | NE (NE indicates less than 50% inhibition at 30 μM.) | NE (NE indicates less than 50% inhibition at 30 μM.) | –
11 | 5.1 | 6.7 | O=C(O)CCC(=O)N1N=C(c2c(-c3ccc(F)cc3)c3ccccc3[nH]c2=O)CC1c1ccc(F)cc1 (centres unmarked) [997-105, 4-(5-(4-fluorophenyl)-3-(4-(4-fluorophenyl)-2-oxo-1,2-dihydroquinolin-3-yl)-4,5-dihydro-1H-pyrazol-1-yl)-4-oxobutanoic acid] | NE (NE indicates less than 50% inhibition at 30 μM.) | NE (NE indicates less than 50% inhibition at 30 μM.) | –
12 | – | 0.43 | O=C(O)CC(F)(F)C(=O)N1N=C(c2c(-c3ccc(Cl)cc3)c3ccccc3[nH]c2=O)CC1c1ccc(Cl)s1 (centres unmarked) [997-110, 4-(3-(4-(4-chlorophenyl)-2-oxo-1,2-dihydroquinolin-3-yl)-5-(5-chlorothiophen-2-yl)-4,5-dihydro-1H-pyrazol-1-yl)-3,3-difluoro-4-oxobutanoic acid] | – | – | IC50 [1, 9]: 0.16 µM; selectivity at GluN2D- over GluN2B-containing receptor [5]: 625 fold; fold decrease of potency at GluN2D in comparison to 997-74 ([5]; comparator 997-74): 3 fold; 2B IC50 / 2D IC50 [5]: 625; IC50 [6]: 100 µM
13 | 0.343 | 1.44 | NC(=O)C(F)(F)CC(=O)N1N=C(c2c(-c3ccc(Cl)cc3)c3ccccc3[nH]c2=O)CC1c1ccc(Cl)cc1 (centres unmarked) [997-115, 4-(5-(4-chlorophenyl)-3-(4-(4-chlorophenyl)-2-oxo-1,2-dihydroquinolin-3-yl)-4,5-dihydro-1H-pyrazol-1-yl)-2,2-difluoro-4-oxobutanamide] | NE (NE indicates less than 50% inhibition at 30 μM.) | NE (NE indicates less than 50% inhibition at 30 μM.) | –
14 | 12.3 | 13.5 | O=C(O)CC(F)(F)C(=O)N1N=C(c2ccccc2-c2ccc(F)cc2F)CC1c1ccc(Cl)cc1 (centres unmarked) [997-121, 4-(5-(4-chlorophenyl)-3-(2′,4′-difluoro-[1,1′-biphenyl]-2-yl)-4,5-dihydro-1H-pyrazol-1-yl)-3,3-difluoro-4-oxobutanoic acid] | NE (NE indicates less than 50% inhibition at 30 μM.) | NE (NE indicates less than 50% inhibition at 30 μM.) | fold decrease of activity in comparison to 997-95 ([5]; comparator 997-95): 2 fold
